Measurements as given in patent US8586611B2 (priority 2005, dated 2013).

Assays:
Format in all cases: in vivo
[1] = tested on: Pseudoperonospora cubensis; experiment: Test A: cucumber downy mildew, spray the day before inoculation (disease rating, 100 = 100% disease control); settings: spray the day before inoculation, compounds without asterisk (not 40 or 10 ppm)
From the text: The test compounds were first dissolved in acetone in an amount equal to 3% of the final volume and then suspended at the desired concentration (in ppm) in acetone and purified water (50/50 mix by volume) containing 250 ppm of the surfactant Trem® 014 (polyhydric alcohol esters). The resulting test suspensions were then used in tests A-E. Spraying a 200 ppm test suspension to the point of run-off on the test plants was the equivalent of a rate of 500 g/ha.
The test suspension was sprayed to the point of run-off on cucumber seedlings. The following day the seedlings were inoculated with a spore suspension of Pseudoperonospora cubensis (the causal agent of cucumber downy mildew) and incubated in a saturated atmosphere at 20° C. for 24 h, and then moved to a growth chamber at 20° C. for 6 days, after which disease ratings were made.
Results for Tests A-F are given in Table A. In the table, a rating of 100 indicates 100% disease control and a rating of 0 indicates no disease control (relative to the controls). A dash (-) indicates no test results.

Plasmopara viticola = experiment: Test B: grape downy mildew, spray 24 h after inoculation (disease rating, 100 = 100% disease control); settings: spray 24 h after inoculation
Outline: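 Grape seedlings were inoculated with Plasmopara viticola and held 24 h saturated at 20 °C, then sprayed to run-off with compound suspension (acetone/water with 250 ppm Trem 014; 200 ppm ≈ 500 g/ha). After 5 days at 20 °C and 24 h saturation, disease was rated from 0 to 100% control versus untreated.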

Phytophthora infestans [2] = experiment: whole plant or invertebrate; settings: tomato late blight, spray the day before inoculation
[3] = tested on: Erysiphe graminis f. sp. tritici; experiment: Test E: wheat powdery mildew, spray the day before inoculation (disease rating, 100 = 100% disease control); settings: spray the day before inoculation
Outline: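 Wheat seedlings sprayed to run-off with compound suspended in acetone/water 50/50 with 250 ppm Trem 014 (200 ppm equivalent to 500 g/ha); inoculated next day with Erysiphe graminis f. sp. tritici spore dust. Kept 7 days at 20° C, then rated 0–100% disease control versus controls.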

[4] = tested on: Pseudoperonospora cubensis; experiment: Test F: cucumber downy mildew, DMSO/acetone/water test suspension, spray the day before inoculation (disease rating, 100 = 100% disease control); settings: DMSO/acetone/water suspension, spray the day before inoculation, compounds without asterisk
Outline: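 Compounds in DMSO (4% of final volume) suspended in 30/70 acetone/water and sprayed on cucumber seedlings; 250 ppm corresponds to 250 g/ha. Spore inoculation the next day, 24 h saturated humidity at 20° C., then 6 days at 20° C. Rating 0–100 is disease control relative to controls.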

Phytophthora infestans [5] = experiment: whole plant or invertebrate; settings: tomato late blight; spray 17 h after inoculation; tested at 40 ppm
[6] = compounds without asterisk (not 40 or 10 ppm)

Compound	Test A disease rating (100 = 100% disease control, 0 = no disease control) [1] [%]	Test B disease rating (100 = 100% disease control, 0 = no disease control) (Plasmopara viticola; [6]) [%]	Test C disease rating (100 = 100% disease control, 0 = no disease control) (Phytophthora infestans [2]; [6]) [%]	Test E disease rating (100 = 100% disease control, 0 = no disease control) [3, 6] [%]	Test F disease rating (100 = 100% disease control, 0 = no disease control) [4] [%]	Test B disease rating (100 = 100% disease control, 0 = no disease control) (Plasmopara viticola; tested at 40 ppm) [%]	Test C disease rating (100 = 100% disease control, 0 = no disease control) (Phytophthora infestans [2]; tested at 40 ppm) [%]	Test D disease rating (100 = 100% disease control, 0 = no disease control) (Phytophthora infestans [5]) [%]	Test E disease rating (100 = 100% disease control, 0 = no disease control) ([3]; tested at 40 ppm) [%]
2-[1-[(2,5-dimethylphenyl)acetyl]-4-piperidinyl]-N-methyl-N-[(1R)-1-phenylpropyl]-4-oxazolecarboxamide [Compound 154]	0	20	0	0	95				
2-[1-[(3,5-diethyl-1H-pyrazol-1-yl)acetyl]-4-piperidinyl]-N-methyl-N-[(1R)-1,2,3,4-tetrahydro-1-naphthalenyl]-4-thiazolecarboxamide [Compound 209]	100	76	98	0	99				
2-[1-[[5-ethyl-3-(trifluoromethyl)-1H-pyrazol-1-yl]acetyl]-4-piperidinyl]-N-methyl-N-[(1R)-1,2,3,4-tetrahydro-1-naphthalenyl]-4-thiazolecarboxamide [Compound 208]	100	95	100	0	99				
Cc1ccccc1CC(=O)N1CCC(c2nc(C(=O)N(C)[C@H](C)c3ccccc3)cs2)CC1 [Compound 11]	0	31	91	0	97				
Cc1cc(C(F)(F)F)nn1CC(=O)N1CCC(c2nc(C(=O)N(C)C3c4ccccc4CCC3(C)C)cs2)CC1 (stereo not shown) [Compound 236]	97	61	62	0		100	100	99	0
C[C@H](c1ccccc1)N(C)C(=O)c1csc(C2CCN(C(=O)Cc3ccc(F)c(Cl)c3)CC2)n1 [compound 35]	88	66	93	0	97				
Cc1cccc(CC(=O)N2CCC(c3nc(C(=O)N(C)[C@H](C)c4ccccc4)cs3)CC2)c1 [compound 36]	100	99	100	91	95				
C[C@H](c1ccccc1)N(C)C(=O)c1csc(C2CCN(C(=O)Cc3ccc(F)c(F)c3)CC2)n1 [compound 38]	0	45	0	55	43				
C[C@H](c1ccccc1)N(C)C(=O)c1csc(C2CCN(C(=O)Cc3cc(C(F)(F)F)ccc3Cl)CC2)n1 [compound 39]	100	100	100	85	100				
COc1ccccc1CC(=O)N1CCC(c2nc(C(=O)N(C)[C@H](C)c3ccccc3)cs2)CC1 [compound 41]	100	94	100	0	82				
C[C@H](c1ccccc1)N(C)C(=O)c1csc(C2CCN(C(=O)Cc3cc(F)ccc3F)CC2)n1 [compound 44]	97	57	98	21	0				
C[C@H](c1ccccc1)N(C)C(=O)c1csc(C2CCN(C(=O)Nc3cccc(C(F)(F)F)c3)CC2)n1 [compound 156]	100		62	21	100				
N-methyl-2-[1-[[5-methyl-3-(trifluoromethyl)-1H-pyrazol-1-yl]acetyl]-4-piperidinyl]-N-[(1R,2S)-1,2,3,4-tetrahydro-2-methyl-1-naphthalenyl]-4-thiazolecarboxamide [Compound 234]	100	100	100	21		100	100	99	0
N-methyl-2-[1-[[5-methyl-3-(trifluoromethyl)-1H-pyrazol-1-yl]acetyl]-4-piperidinyl]-N-[(1R,4R)-1,2,3,4-tetrahydro-4-hydroxy-1-naphthalenyl]-4-thiazolecarboxamide [Compound 206]	99	5	31	0					
N-methyl-2-[1-[[5-methyl-3-(trifluoromethyl)-1H-pyrazol-1-yl]acetyl]-4-piperidinyl]-N-[(1R,4S)-1,2,3,4-tetrahydro-4-hydroxy-1-naphthalenyl]-4-thiazolecarboxamide [Compound 191]	97	17	90	0					
N-methyl-2-[4-[[5-methyl-3-(trifluoromethyl)-1H-pyrazol-1-yl]acetyl]-1-piperazinyl]-N-[(1R)-1,2,3,4-tetrahydro-1-naphthalenyl]-4-thiazolecarboxamide [Compound 220]	0	0	0	0					
